pIC50: −log10 of the molar value. “And” between values parts separate entries of the source, which are not always exact repeats. Equal values may be shown once. “Also recorded” adds a separate entry of the source.
Key:
[1] = test system: DU145 cells; assay: Real-time quantitative PCR (RRS1, GRWD1, CCNG2, YPEL3 mRNA); type: cell-based, human
[2] = test system: 22Rv1 cells; assay: as above; type: cell-based, human; conditions: replicates
[3] = test system: ICR mice; assay: Acute toxicity study; type: in vivo
[4] = target: T1, DYRK1B (Homo sapiens, UniProt Q9Y463); assay: DYRKs kinase activity assay (33P-ATP, DYRKtide substrate): DYRK1B; type: biochemical
T1 construct: purchased Reaction Biology Corporation (assay service)

[5] = target: T2, DYRK2 (Homo sapiens, UniProt Q92630); assay: DYRKs kinase activity assay (33P-ATP, DYRKtide substrate): DYRK2; type: biochemical
T2 construct: purchased Reaction Biology Corporation (assay service)
T2 sequence (Q92630 1-601): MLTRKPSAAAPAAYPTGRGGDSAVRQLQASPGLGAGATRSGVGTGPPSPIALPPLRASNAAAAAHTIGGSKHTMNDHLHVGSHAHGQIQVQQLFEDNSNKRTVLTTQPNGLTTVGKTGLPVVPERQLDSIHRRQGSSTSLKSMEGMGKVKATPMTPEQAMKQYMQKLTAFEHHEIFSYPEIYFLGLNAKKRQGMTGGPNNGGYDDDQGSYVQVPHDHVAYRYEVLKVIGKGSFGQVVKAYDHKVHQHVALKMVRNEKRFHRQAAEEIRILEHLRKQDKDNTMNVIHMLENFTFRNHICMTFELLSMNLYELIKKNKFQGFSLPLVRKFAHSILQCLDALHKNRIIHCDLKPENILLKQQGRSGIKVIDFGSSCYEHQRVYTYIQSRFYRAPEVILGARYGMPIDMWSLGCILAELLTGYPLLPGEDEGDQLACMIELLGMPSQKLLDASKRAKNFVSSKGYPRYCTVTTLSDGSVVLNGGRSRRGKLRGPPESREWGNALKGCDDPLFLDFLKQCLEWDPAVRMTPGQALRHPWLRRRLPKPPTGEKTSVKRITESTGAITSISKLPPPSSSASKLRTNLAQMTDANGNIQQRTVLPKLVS

[6] = test system: DU145 shDYRK2 cells; assay: Anti-proliferation activity assay (CCK8, 72 h); type: cell-based, human
[7] = test system: 22Rv1 shDYRK2 cells; assay: Anti-proliferation activity assay (CCK8, 72 h); type: cell-based, human
[8] = test system: DU145 cells; assay: Transcriptome-wide RNA-sequencing; type: cell-based, human; conditions: DU145, YK-2-69 3 µM 48 h vs DMSO
[9] = ICR mice, single oral dose 2500, 5000, 10,000 mg/kg, 14 days
[10] = Homo sapiens, DU-145, read-out: inhibitory rate (%) mean
[11] = Homo sapiens, 22Rv1, read-out: inhibitory rate (%) mean

T1 sequence (Q9Y463 whole entry): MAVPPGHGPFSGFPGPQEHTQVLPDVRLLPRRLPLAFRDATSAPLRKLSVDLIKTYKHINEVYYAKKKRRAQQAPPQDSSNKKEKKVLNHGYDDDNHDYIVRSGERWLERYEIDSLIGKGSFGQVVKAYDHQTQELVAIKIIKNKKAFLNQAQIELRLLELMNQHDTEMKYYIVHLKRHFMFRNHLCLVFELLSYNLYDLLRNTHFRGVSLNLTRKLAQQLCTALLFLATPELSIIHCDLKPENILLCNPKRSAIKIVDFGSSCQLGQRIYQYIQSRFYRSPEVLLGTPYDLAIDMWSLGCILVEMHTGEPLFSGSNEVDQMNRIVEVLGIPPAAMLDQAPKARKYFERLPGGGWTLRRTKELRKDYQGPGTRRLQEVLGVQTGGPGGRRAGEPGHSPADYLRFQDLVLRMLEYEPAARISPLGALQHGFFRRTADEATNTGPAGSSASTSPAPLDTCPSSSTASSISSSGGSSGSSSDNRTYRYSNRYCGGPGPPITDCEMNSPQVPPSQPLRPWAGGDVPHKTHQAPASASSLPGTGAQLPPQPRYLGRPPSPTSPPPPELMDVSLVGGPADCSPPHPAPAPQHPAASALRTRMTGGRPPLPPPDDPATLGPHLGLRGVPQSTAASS

## CCN1CCN(C(=O)c2ccc(Nc3ncc(F)c(-c4ccc5nc(N(C)C)sc5c4)n3)nc2)CC1 [YK-2-69]
[1]; DU145, 2 μM
  Relative mRNA levels CCNG2: 1.61 and 1.59 and 1.77
  Relative mRNA levels GRWD1: 0.86 and 0.88 and 0.9
  Relative mRNA levels RRS1: 0.88 and 0.78 and 0.86
  Relative mRNA levels YPEL3: 1.25 and 1.23 and 1.29
[1]; DU145, 4 μM
  Relative mRNA levels CCNG2: 1.7 and 1.66 and 1.89
  Relative mRNA levels GRWD1: 0.79 and 0.71
  Relative mRNA levels RRS1: 0.68 and 0.7 and 0.71
  Relative mRNA levels YPEL3: 2.68 and 2.63 and 2.74
[1]; DU145, 8 μM
  Relative mRNA levels CCNG2: 1.91 and 1.83 and 2.04
  Relative mRNA levels GRWD1: 0.58 and 0.63 and 0.67
  Relative mRNA levels RRS1: 0.58 and 0.65
  Relative mRNA levels YPEL3: 3.48 and 3.53 and 3.64
[2]; 22Rv1, 1 μM
  Relative mRNA levels CCNG2: 2.36 and 2.34 and 2.68
  Relative mRNA levels GRWD1: 0.83 and 0.9 and 0.89
  Relative mRNA levels RRS1: 0.87 and 0.83 and 0.82
  Relative mRNA levels YPEL3: 1.18 and 1.26 and 1.19
[2]; 22Rv1, 2 μM
  Relative mRNA levels CCNG2: 4.36 and 5.2 and 4.62
  Relative mRNA levels GRWD1: 0.79 and 0.78 and 0.7
  Relative mRNA levels RRS1: 0.73 and 0.77 and 0.71
  Relative mRNA levels YPEL3: 1.68 and 1.63 and 1.74
[2]; 22Rv1, 4 μM
  Relative mRNA levels CCNG2: 8.94 and 9.9 and 8.92
  Relative mRNA levels GRWD1: 0.69 and 0.68 and 0.62
  Relative mRNA levels RRS1: 0.63 and 0.68
  Relative mRNA levels YPEL3: 2.48 and 2.53 and 2.64
[3]; 2500 mg/kg
  Figure S9b Heart (organ weight, individual mice): 0.094 and 0.137 and 0.125 and 0.146 and 0.118 and 0.152 and 0.105 and 0.097 and 0.092 and 0.115
  Figure S9b Kidney (organ weight, individual mice): 0.384 and 0.403 and 0.421 and 0.413 and 0.636 and 0.576 and 0.731 and 0.682 and 0.613
  Figure S9b Liver (organ weight, individual mice): 1.351 and 1.216 and 1.284 and 1.094 and 1.159 and 1.384 and 1.751 and 1.369 and 1.52 and 1.491
  Figure S9b Lung (organ weight, individual mice): 0.316 and 0.435 and 0.421 and 0.358 and 0.299 and 0.367 and 0.294 and 0.341 and 0.276 and 0.336
  Figure S9b Spleen (organ weight, individual mice): 0.176 and 0.186 and 0.205 and 0.201 and 0.214 and 0.253 and 0.196 and 0.221 and 0.206 and 0.257
[3]; 2500 mg/kg, Day 0
  Figure S9a body weight of individual mice: 19.9 and 20.5 and 20.1 (2×) and 20 and 19.6 and 19.8 and 20.3 and 20.6 and 21.1
[3]; 2500 mg/kg, Day 2
  Figure S9a body weight of individual mice: 20.2 (2×) and 20.8 and 20.3 (2×) and 20.4 and 19.8 and 20.6 and 20.9 and 21.5
[3]; 2500 mg/kg, Day 4
  Figure S9a body weight of individual mice: 20.8 and 21.3 (2×) and 20.5 and 20.6 (2×) and 20.1 and 20.4 and 21.1 and 21.8
[3]; 2500 mg/kg, Day 6
  Figure S9a body weight of individual mice: 21.3 and 21.7 and 20.6 and 20.8 and 20.2 and 20.7 and 21.5 and 21.9 and 22.2 and 20.9
[3]; 2500 mg/kg, Day 8
  Figure S9a body weight of individual mice: 22.3 and 22.5 and 20.7 and 21.1 and 20.3 and 21 and 21.8 and 22.2 and 22.6 and 21.5
[3]; 2500 mg/kg, Day 10
  Figure S9a body weight of individual mice: 22.9 and 23.2 and 20.9 and 21.4 and 20.5 and 21.3 and 22.2 and 22.5 and 23.4 and 21.9
[3]; 2500 mg/kg, Day 12
  Figure S9a body weight of individual mice: 23.5 and 23.9 and 21.2 and 21.7 and 20.6 and 21.6 and 22.4 (2×) and 22.9 and 23.8
[3]; 2500 mg/kg, Day 14
  Figure S9a body weight of individual mice: 24.2 and 24.5 and 21.4 and 22 and 20.9 and 21.8 and 22.9 (2×) and 23.4 and 24.3
[3]; 5000 mg/kg
  Figure S9b Heart (organ weight, individual mice): 0.126 and 0.135 and 0.116 and 0.143 and 0.138 and 0.106 and 0.112 and 0.096 and 0.094
  Figure S9b Kidney (organ weight, individual mice): 0.369 and 0.416 and 0.389 and 0.444 and 0.502 and 0.384 and 0.569 and 0.612 and 0.656 and 0.715
  Figure S9b Liver (organ weight, individual mice): 1.316 and 1.128 and 1.421 and 1.266 and 1.156 and 1.841 and 1.669 and 1.581 and 1.384 and 1.492
  Figure S9b Lung (organ weight, individual mice): 0.401 and 0.386 and 0.456 and 0.512 and 0.379 and 0.452 and 0.253 and 0.302 and 0.281 and 0.317
  Figure S9b Spleen (organ weight, individual mice): 0.2 and 0.186 and 0.199 and 0.214 and 0.231 and 0.25 and 0.241 and 0.267
[3]; 5000 mg/kg, Day 0
  Figure S9a body weight of individual mice: 21.4 and 20.5 (3×) and 19.7 and 20.2 and 19.6 and 19.9 and 20.3 and 21.1
[3]; 5000 mg/kg, Day 2
  Figure S9a body weight of individual mice: 21.7 and 20.9 and 19.9 and 20.4 and 19.6 and 20.3 and 20.7 and 20.6 and 21.5 and 20.8
[3]; 10000 mg/kg
  Figure S9b Heart (organ weight, individual mice): 0.115 and 0.099 and 0.142 and 0.128 and 0.122 and 0.129 and 0.089 and 0.096 and 0.124 and 0.106
  Figure S9b Kidney (organ weight, individual mice): 0.412 and 0.389 and 0.476 and 0.423 and 0.403 and 0.621 and 0.586 and 0.639 and 0.7 and 0.641
  Figure S9b Liver (organ weight, individual mice): 1.352 and 1.294 and 1.186 and 1.416 and 1.222 and 1.613 and 1.358 and 1.429 and 1.61 and 1.389
  Figure S9b Lung (organ weight, individual mice): 0.418 and 0.361 and 0.395 and 0.475 and 0.486 and 0.369 and 0.384 and 0.416 and 0.336 and 0.333
  Figure S9b Spleen (organ weight, individual mice): 0.181 and 0.194 and 0.176 and 0.189 and 0.201 and 0.235 and 0.214 and 0.226 and 0.257
[3]; ICR mice, single oral dose
  maximal tolerable dose: more than 10,000 mg/kg
[3]; [9]
  abnormality and death: no mice died; also recorded: No abnormality and death were observed
  body weight and main organs vs control (in words): no difference was detected
[4]
  pIC50: 6.27
[4]; 0.000762079 µM, duplicates
  % Inhibition DYRK1B: 3.06% and 6.85%
[4]; 0.00228624 µM, duplicates
  % Inhibition DYRK1B: 3.24%
  inhibition at 0.00228624 µM: 5.73%
[4]; 0.00685871 µM, duplicates
  % Inhibition DYRK1B: 11.00%
  inhibition at 0.00685871 µM: 7.22%
[4]; 0.0205761 µM, duplicates
  % Inhibition DYRK1B: 13.48%
  inhibition at 0.0205761 µM: 9.47%
[4]; 0.0617284 µM, duplicates
  % Inhibition DYRK1B: 24.87%
  inhibition at 0.0617284 µM: 26.4%
[4]; 0.185185 µM, duplicates
  % Inhibition DYRK1B: 44.86%
  inhibition at 0.185185 µM: 44.6%
[4]; 0.555556 µM, duplicates
  % Inhibition DYRK1B: 57.04%
  inhibition at 0.555556 µM: 57.3%
[4]; 1.66667 µM, duplicates
  % Inhibition DYRK1B: 62.26%
[4]; 5 µM, duplicates
  % Inhibition DYRK1B: 64.81%
  inhibition at 5 µM: 65.1%
[4]; read-out: % Inhibition DYRK1B, 1.66667 µM, duplicates
  inhibition at 1.66667 µM: 62.7%
[4]; vs DYRK2
  selectivity over DYRK1B: 60 fold
[5]; 0.00228624 µM, duplicates, read-out: % Inhibition DYRK2
  inhibition at 0.00228624 µM: 26.1%
[5]; 0.00685871 µM, duplicates, read-out: % Inhibition DYRK2
  inhibition at 0.00685871 µM: 53%
[5]; 0.0205761 µM, duplicates, read-out: % Inhibition DYRK2
  inhibition at 0.0205761 µM: 65.2%
[5]; 0.0617284 µM, duplicates, read-out: % Inhibition DYRK2
  inhibition at 0.0617284 µM: 82.1%
[5]; 0.185185 µM, duplicates, read-out: % Inhibition DYRK2
  inhibition at 0.185185 µM: 94.1%
[5]; 0.555556 µM, duplicates, read-out: % Inhibition DYRK2
  inhibition at 0.555556 µM: 96.8%
[5]; 5 µM, duplicates, read-out: % Inhibition DYRK2
  inhibition at 5 µM: 97.8%
[5]; read-out: DYRK2 IC50
  pIC50: 8.05
[6]; DU145 shDYRK2 cells, even at 80 μM
  inhibitory activity on proliferation (in words): almost no inhibitory activity
[6]; Homo sapiens, DU-145, DU145 KD, inhibitor 0.625 uM, read-out: inhibitory rate (%) mean
  inhibition at 0.625 µM: 7.98%
[6]; Homo sapiens, DU-145, DU145 KD, inhibitor 1.25 uM, read-out: inhibitory rate (%) mean
  inhibition at 1.25 µM: 10.3%
[6]; Homo sapiens, DU-145, DU145 KD, inhibitor 5 uM, read-out: inhibitory rate (%) mean
  inhibition at 5 µM: 13.5%
[6]; Homo sapiens, DU-145, DU145 KD, inhibitor 10 uM, read-out: inhibitory rate (%) mean
  inhibition at 10 µM: 15.4%
[6]; Homo sapiens, DU-145, DU145 KD, inhibitor 40 uM, read-out: inhibitory rate (%) mean
  inhibition at 40 µM: 17.2%
[6]; Homo sapiens, DU-145, DU145 KD, inhibitor 80 uM, read-out: inhibitory rate (%) mean
  inhibition at 80 µM: 18.1%
[6]; Homo sapiens, DU-145, DU145 shDYRK2 cells, read-out: IC50 antiproliferative activity
  pIC50: < 4.10
[6]; [10]
  inhibition at 2.5 µM: 11.8%
  inhibition at 20 µM: 16%
[7]; 22Rv1 shDYRK2 cells, even at 80 μM
  inhibitory activity on proliferation (in words): almost no inhibitory activity
[7]; [11]
  inhibition at 10 µM: 19.7%
  inhibition at 2.5 µM: 17.3%
  inhibition at 20 µM: 26.3%
[7]; Homo sapiens, 22Rv1 KD, inhibitor 0.625 uM, read-out: inhibitory rate (%) mean
  inhibition at 0.625 µM: 9.79%
[7]; Homo sapiens, 22Rv1 KD, inhibitor 1.25 uM, read-out: inhibitory rate (%) mean
  inhibition at 1.25 µM: 14.3%
[7]; Homo sapiens, 22Rv1 KD, inhibitor 5 uM, read-out: inhibitory rate (%) mean
  inhibition at 5 µM: 19.2%
[7]; Homo sapiens, 22Rv1 KD, inhibitor 40 uM, read-out: inhibitory rate (%) mean
  inhibition at 40 µM: 31.8%
[7]; Homo sapiens, 22Rv1 KD, inhibitor 80 uM, read-out: inhibitory rate (%) mean
  inhibition at 80 µM: 43.8%
[7]; Homo sapiens, 22Rv1 shDYRK2 cells, read-out: IC50 antiproliferative activity
  pIC50: < 4.10
[8]
  log2(fc) KLF6 (ENSG00000067082): -1
  log2(fc) MT-ND6 (ENSG00000198695): 1.099
  log2(fc) PLK2 (ENSG00000145632): -1.04
  log2(fc) TAGLN (ENSG00000149591): -2.064

Source: PMC9133015 (Nature Communications, 2022)
